Legend:
NL09 and NL11 strains = type: cell-based, influenza A virus
[1] = tested on: A/Netherlands/602/09 (NL09); type: cell-based, influenza A virus
[2] = tested on: A/Netherlands/241/11 (NL11); type: cell-based, influenza A virus
NL09 and NL11 = type: cell-based, influenza A virus
NL09 or NL11 strain = type: cell-based, influenza A virus
NL09 or NL11 = type: cell-based, influenza A virus
c-Raf = settings: cited from earlier work; for higher selectivity for c-Raf than vemurafenib: no reference given
B-Raf = settings: no reference given; cited from earlier work
IAV = settings: single donor; cited from earlier work
NL11 (H3N2) = type: cell-based, influenza A virus
[3] = tested on: IAV laboratory strains (PR8 and WSN) and pandemic H1N1 (CA09); parameters: method as in earlier work; settings: A549 cells, AF 1μM, 15 hpi; cited from earlier work
[4] = tested on: human precision-cut lung slices (hPCLSs); experiment: LDH-Glo cytotoxicity assay in hPCLSs; settings: [10×]max: AF 50 μM, DA 100 μM, RG 25 μM; relative to Triton-X 100 positive control, 20% cut-off
[5] = tested on: A(H1N1)pdm09 A/Netherlands/602/09 (NL09); type: cell-based, influenza A virus
NL09 = type: cell-based, influenza A virus

With `CCOc1cc2ncc(C#N)c(Nc3ccc(OCc4ccccn4)c(Cl)c3)c2cc1NC(=O)/C=C/CN(C)C` [NE, neratinib] the “reduction in viral titers” value (NL09 and NL11 strains) was 40- to 50 fold, the “reduction of the titers of both viruses” value (NL09 and NL11 strains) was 10- to 30 fold and the “relative infectivity, NL09” value [1] was 70%. For the same compound, the “relative infectivity, NL11” value [2] was 92%, the “highest viral titer reduction at MOI = 0.1” value (“highest viral titer reduction” below) (NL09 and NL11) was 100 fold and the “time dependence of effect on virus replication” value (shortened to “time dependence of effect”) (NL09 and NL11) was “greater effect on virus replication at the early time points (24 hpi)”. The “effect on viral entry (NP staining)” value (NL09 or NL11 strain) was “inhibited”, the “antiviral effect in hPCLSs compared to A549 cells” value (NL09 or NL11) was “more potent antiviral effect” and the “time at which inhibition of virus replication in hPCLSs was observed” value (shortened to “time at which inhibition”) (NL09 or NL11) was no more than 12 hpi.

With `CNC(=O)c1cc(Oc2ccc(NC(=O)Nc3ccc(Cl)c(C(F)(F)F)c3)c(F)c2)ccn1` [RG, regorafenib] the “effect on viral titers, NL11 compared with NL09” value (from here on “effect … compared with NL09”) (NL09 and NL11 strains) was “significantly stronger in NL11-infected cells”, the “reduction in viral titers” value (NL09 and NL11 strains) was 10- to 1000 fold and the “relative infectivity, NL09” value [1] was 75%. For the same compound, the “relative infectivity, NL11” value [2] was 80%, the “highest viral titer reduction” value (NL09 and NL11) was 10,000 fold and the “time dependence of effect” value (NL09 and NL11) was “greater effect on virus replication at the early time points (24 hpi)”. For the same compound, the “effect on viral entry (NP staining)” value (NL09 or NL11 strain) was “inhibited”, the “antiviral effect in hPCLSs compared to A549 cells” value (NL09 or NL11) was “more potent antiviral effect” and the “significance of viral titer reduction in infected hPCLSs” value (“significance of viral titer reduction” below) (NL09 or NL11) was “consistently significant after 48 hpi”. The “time at which inhibition” value (NL09 or NL11) was no more than 12 hpi, the “selectivity for c-Raf relative to B-Raf” value (c-Raf) was ~ 10 fold and the “higher selectivity for c-Raf than vemurafenib” value (c-Raf) was 10 fold. For the same compound, the “higher selectivity for B-Raf than vemurafenib” value (B-Raf) was 10- to 100 fold and the “potency in primary bronchial cells vs A549 cells” value (IAV) was “less potent in primary bronchial cells than in A549 cells”.

With `Cc1cc(Nc2ncnc3ccc(NC4=NC(C)(C)CO4)cc23)ccc1Oc1ccn2ncnc2c1` [TU, tucatinib] the “reduction of the titers of both viruses” value (NL09 and NL11 strains) was 10- to 30 fold, the “relative infectivity, NL09” value [1] was 86% and the “relative infectivity, NL11” value [2] was 100%. The “highest viral titer reduction” value (NL09 and NL11) was 10 fold, the “effect on viral entry (NP staining)” value (NL09 or NL11 strain) was “no obvious effects on viral entry” and the “time at which inhibition” value (NL09 or NL11) was no more than 12 hpi.

With `Cn1cc(-c2cc3c(N4CCN(c5ncc([C@@](C)(N)c6ccc(F)cc6)cn5)CC4)ncnn3c2)cn1` [AV, avapritinib] the “reduction of the titers of both viruses” value (NL09 and NL11 strains) was 10- to 30 fold, the “relative infectivity, NL09” value [1] was 80% and the “relative infectivity, NL11” value [2] was 81%. For the same compound, the “highest viral titer reduction” value (NL09 and NL11) was 10 fold, the “effect on viral entry (NP staining)” value (NL09 or NL11 strain) was “no obvious effects on viral entry” and the “time at which inhibition” value (NL09 or NL11) was no more than 12 hpi.

For `CC(C)(C)c1nc(-c2cccc(NS(=O)(=O)c3c(F)cccc3F)c2F)c(-c2ccnc(N)n2)s1` [DA, dabrafenib], the “effect … compared with NL09” value (NL09 and NL11 strains) was “significantly stronger in NL11-infected cells”, the “reduction in viral titers” value (NL09 and NL11 strains) was 10- to 100 fold and the “relative infectivity, NL09” value [1] was 117%. The “relative infectivity, NL11” value [2] was 126%, the “highest viral titer reduction” value (NL09 and NL11) was 100 fold and the “effect on viral entry (NP staining)” value (NL09 or NL11 strain) was “inhibited”. For the same compound, the “significance of viral titer reduction” value (NL09 or NL11) was “consistently significant after 48 hpi”, the “time at which inhibition” value (NL09 or NL11) was no more than 12 hpi and the “higher selectivity for c-Raf than vemurafenib” value (c-Raf) was 10 fold. The “higher selectivity for B-Raf than vemurafenib” value (B-Raf) was 10- to 100 fold.

For `CN(C)C/C=C/C(=O)Nc1cc2c(Nc3ccc(F)c(Cl)c3)ncnc2cc1O[C@H]1CCOC1` [AF, afatinib], the “effect … compared with NL09” value (NL09 and NL11 strains) was “significantly stronger in NL11-infected cells”, the “reduction in viral titers” value (NL09 and NL11 strains) was 100- to 3000 fold and the “relative infectivity, NL11” value [2] was 65%. The “highest viral titer reduction” value (NL09 and NL11) was 1000 fold, the “time dependence of effect” value (NL09 and NL11) was “greater effect on virus replication at the early time points (24 hpi)” and the “effect on viral entry (NP staining)” value (NL09 or NL11 strain) was “inhibited”. For the same compound, the “% Luminescence (relative to untreated / normalized to GFP), NL11 infection” value (NL11 (H3N2)) was 50%, the “significance of viral titer reduction” value (NL09 or NL11) was “consistently significant after 48 hpi” and the “time at which inhibition” value (NL09 or NL11) was no more than 12 hpi. For the same compound, the “relative cell viability over mock-infected treated controls” value (A549 cells) was “only marginally decreased the relative viability”, the “effect on viral replication” value [3] was 2- to 5 fold and the “cytotoxicity (LDH release) in hPCLSs at [10×]max” value [4] was greater than 20%.

For `O=C(Nc1cnn2ccc(N3CCC[C@@H]3c3cc(F)ccc3F)nc12)N1CC[C@H](O)C1` [LA, larotrectinib], the “reduction of the titers of both viruses” value (NL09 and NL11 strains) was 10- to 30 fold, the “NL09 viral titer reduction” value [5] was ~ 9 fold and the “relative infectivity, NL09” value [1] was 60%. For the same compound, the “relative infectivity, NL11” value [2] was 91%, the “highest viral titer reduction” value (NL09 and NL11) was 100 fold and the “time dependence of effect” value (NL09 and NL11) was “greater effect on virus replication at the early time points (24 hpi)”. The “effect on viral entry (NP staining)” value (NL09 or NL11 strain) was “no obvious effects on viral entry”, the “relative intracellular to extracellular (I/E) viral RNA Ct ratio (egress)” value (NL09) was “did not observe significant differences in any single step of viral replication” and the “time at which inhibition” value (NL09 or NL11) was no less than 72 hpi.

Reference: paper PMC9504178 (Viruses, 2022)
